Assay results published in PubChem BioAssay AID248 (DTP/NCI, 2004).
“And” between values parts separate entries of the source, which are not always exact repeats. Equal entries are not always repeated. Toxic doses and inconclusive results are not listed.

Test system: L1210 leukemia ip in BDF1 mice, survival T/C
Experiment: NCI In Vivo Anticancer Drug Screen. Data for tumor model L1210 Leukemia (intraperitoneal) in B6D2F1 (BDF1) mice
Conditions: endpoint: mean survival time, higher = longer survival
How it was run: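 Transplantable tumor model; survival measured in treated vs vehicle control mice. Value = treated/control.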

[1] = dose: 100.0 mg/kg/injection, schedule: Q01DX009 (ip), vehicle: saline
[2] = dose: 50.0 mg/kg/injection, schedule: Q04DX003 (ip), vehicle: Klucel (hydroxypropylcellulose) (HPC)
[3] = dose: 100.0 mg/kg/injection, schedule: Q01DX009 (ip), vehicle: Klucel (hydroxypropylcellulose) (HPC)
[4] = dose: 100.0 mg/kg/injection, schedule: Q04DX003 (ip), vehicle: Klucel (hydroxypropylcellulose) (HPC)
[5] = dose: 200.0 mg/kg/injection, schedule: Q04DX003 (ip), vehicle: Klucel (hydroxypropylcellulose) (HPC)
[6] = dose: 400.0 mg/kg/injection, schedule: Q04DX003 (ip), vehicle: Klucel (hydroxypropylcellulose) (HPC)
[7] = dose: 75.0 mg/kg/injection, schedule: Q01DX001 (ip), vehicle: other
[8] = dose: 150.0 mg/kg/injection, schedule: Q01DX001 (ip), vehicle: other
[9] = dose: 300.0 mg/kg/injection, schedule: Q01DX001 (ip), vehicle: other
[10] = dose: 25.0 mg/kg/injection, schedule: Q01DX009 (ip), vehicle: Klucel (hydroxypropylcellulose) (HPC)
[11] = dose: 50.0 mg/kg/injection, schedule: Q01DX009 (ip), vehicle: Klucel (hydroxypropylcellulose) (HPC)
[12] = dose: 100.0 mg/kg/injection, schedule: Q01DX001 (ip), vehicle: saline
[13] = dose: 200.0 mg/kg/injection, schedule: Q01DX001 (ip), vehicle: saline
[14] = dose: 400.0 mg/kg/injection, schedule: Q01DX001 (ip), vehicle: saline

`CC(C)(CCC#N)C1OCCO1` was tested, and the T/C [1] was 106 % of control, the T/C (dose: 100.0 mg/kg/injection, schedule: Q04DX003 (ip), vehicle: saline) was 98 % of control and the T/C (dose: 200.0 mg/kg/injection, schedule: Q01DX009 (ip), vehicle: saline) was 102 % of control. For the same compound, the T/C (dose: 200.0 mg/kg/injection, schedule: Q04DX003 (ip), vehicle: saline) was 105 % of control, the T/C (dose: 400.0 mg/kg/injection, schedule: Q01DX009 (ip), vehicle: saline) was 102 % of control and the T/C (dose: 400.0 mg/kg/injection, schedule: Q04DX003 (ip), vehicle: saline) was 96 % of control.
In the case of `CC1(c2ccccc2)NC(=O)NC1=O` (stereo unspecified), the T/C (dose: 100.0 mg/kg/injection, schedule: Q01DX001 (ip), vehicle: Klucel (hydroxypropylcellulose) (HPC)) is reported as 92 % of control, the T/C (dose: 200.0 mg/kg/injection, schedule: Q01DX001 (ip), vehicle: Klucel (hydroxypropylcellulose) (HPC)) is reported as 95 % of control and the T/C (dose: 400.0 mg/kg/injection, schedule: Q01DX001 (ip), vehicle: Klucel (hydroxypropylcellulose) (HPC)) is reported as 95 % of control.
For `O=C(Nc1cc(Cl)cc2c1-c1c(Cl)cc(Cl)cc1C2)C(Cl)Cl`, the T/C [2] was 100 % of control, the T/C [3] was 97 % of control and the T/C [4] was 92 % of control. For the same compound, the T/C [5] was 94 % of control and the T/C [6] was 100 % of control.
For `O=C(O)CC(NS(=O)(=O)Cc1ccccc1)C(=O)O` (stereo unspecified), the T/C (dose: 100.0 mg/kg/injection, schedule: Q04DX003 (ip), vehicle: other) was 94 % of control, the T/C (dose: 200.0 mg/kg/injection, schedule: Q04DX003 (ip), vehicle: other) was 92 % of control and the T/C (dose: 400.0 mg/kg/injection, schedule: Q04DX003 (ip), vehicle: other) was 92 % of control.
For `C/C=C(\CC)C1(CC)C(=O)NC(=O)NC1=O`, the T/C [7] was 97 % of control, the T/C (dose: 75.0 mg/kg/injection, schedule: Q01DX001 (ip), vehicle: saline) was 102 % of control and the T/C [8] was 97 % of control. For the same compound, the T/C (dose: 150.0 mg/kg/injection, schedule: Q01DX001 (ip), vehicle: saline) was 103 % of control, the T/C [9] was 91 % of control and the T/C (dose: 300.0 mg/kg/injection, schedule: Q01DX001 (ip), vehicle: saline) was 112 % of control.
`C[N+](C)(C)Cc1ccccc1C=C(c1ccccc1)c1ccccc1` was tested, and the T/C (dose: 12.5 mg/kg/injection, schedule: Q01DX009 (ip), vehicle: Klucel (hydroxypropylcellulose) (HPC)) was 98 % of control, the T/C [10] was 104 % of control and the T/C (dose: 25.0 mg/kg/injection, schedule: Q04DX003 (ip), vehicle: Klucel (hydroxypropylcellulose) (HPC)) was 101 % of control. For the same compound, the T/C [11] was 98 % of control and the T/C [2] was 88 % of control.
With `O=[N+]([O-])c1cc(Cl)ccc1S(=O)(=O)F` the T/C (dose: 100.0 mg/kg/injection, schedule: Q04DX003 (ip), vehicle: carboxymethylcellulose (CMC)) was 103 % of control and the T/C (dose: 200.0 mg/kg/injection, schedule: Q04DX003 (ip), vehicle: carboxymethylcellulose (CMC)) was 94 % of control.
With `CC1(C)CC(=O)C(C23C=CC2=C(CO)C(=O)OC3)C1` (stereo unspecified) the T/C (dose: 5.0 mg/kg/injection, schedule: Q01DX001 (ip), vehicle: saline) was 96 % of control, the T/C (dose: 10.0 mg/kg/injection, schedule: Q01DX001 (ip), vehicle: saline) was 96 % of control and the T/C (dose: 20.0 mg/kg/injection, schedule: Q01DX001 (ip), vehicle: saline) was 98 % of control. The T/C (dose: 40.0 mg/kg/injection, schedule: Q01DX001 (ip), vehicle: saline) was 110 % of control.
With `NC(=O)N=C(N)N` the T/C [12] was 92 % of control, the T/C [13] was 90 % of control and the T/C [14] was 92 % of control.
In the case of `CC(=O)OCC1OC(SSc2ccccc2)C(OC(C)=O)C(OC(C)=O)C1OC(C)=O` (stereo unspecified), the T/C [12] is reported as 98 % of control, the T/C [13] is reported as 89 % of control and the T/C [14] is reported as 89 % of control.
`NCC(=O)O.[Zn+2]` was tested, and the T/C (dose: 100.0 mg/kg/injection, schedule: Q01DX001 (ip), vehicle: water) was 97 % of control, the T/C (dose: 200.0 mg/kg/injection, schedule: Q01DX001 (ip), vehicle: water) was 96 % of control and the T/C (dose: 400.0 mg/kg/injection, schedule: Q01DX001 (ip), vehicle: water) was 94 % of control.
`CCCOC(=O)c1cncc(C(=O)OCCC)c1` was tested, and the T/C (dose: 100.0 mg/kg/injection, schedule: Q04DX003 (ip), vehicle: saline with Tween-80) was 94 % of control, the T/C (dose: 200.0 mg/kg/injection, schedule: Q04DX003 (ip), vehicle: saline with Tween-80) was 105 % of control and the T/C (dose: 400.0 mg/kg/injection, schedule: Q04DX003 (ip), vehicle: saline with Tween-80) was 100 % of control.
For `CCCCC#CCCl`, the T/C [12] was 102 % of control, the T/C [1] was 94 % of control and the T/C [13] was 103 % of control. For the same compound, the T/C [14] was 111 % of control.
In the case of `CC(C)=CN1CCOCC1`, the T/C [10] is reported as 94 % of control, the T/C [11] is reported as 92 % of control and the T/C [3] is reported as 97 % of control and 106 % of control. For the same compound, the T/C [4] was 100 % of control, the T/C [5] was 100 % of control and the T/C [6] was 102 % of control.
For `CC(=O)OCC1OC2OC(C)(C)OC2C1NC(=O)N(C)C(C)=O` (stereo unspecified), the T/C (dose: 100.0 mg/kg/injection, schedule: Q04DX002 (ip), vehicle: saline) was 87 % of control, the T/C (dose: 200.0 mg/kg/injection, schedule: Q04DX002 (ip), vehicle: saline) was 103 % of control and the T/C (dose: 400.0 mg/kg/injection, schedule: Q04DX002 (ip), vehicle: saline) was 90 % of control.
With `CNC(=N)c1ccc(NC(=N)c2ccc(NC(=O)Nc3ccc(C(=N)Nc4ccc(C(=N)NC)cc4)cc3)cc2)cc1` the T/C (dose: 0.25 mg/kg/injection, schedule: Q01DX Z (ip), vehicle: water) was 98 % of control, the T/C (dose: 0.5 mg/kg/injection, schedule: Q01DX Z (ip), vehicle: water) was 96 % of control and the T/C (dose: 1.0 mg/kg/injection, schedule: Q01DX Z (ip), vehicle: water) was 96 % of control. The T/C (dose: 1.87 mg/kg/injection, schedule: Q01DX Z (ip), vehicle: water) was 92 % of control, the T/C (dose: 2.0 mg/kg/injection, schedule: Q01DX Z (ip), vehicle: water) was 104 % of control and the T/C (dose: 3.75 mg/kg/injection, schedule: Q01DX Z (ip), vehicle: water) was 156 % of control. The T/C (dose: 7.0 mg/kg/injection, schedule: Q01DX Z (ip), vehicle: carboxymethylcellulose (CMC)) was 165 % of control, the T/C (dose: 7.5 mg/kg/injection, schedule: Q01DX Z (ip), vehicle: water) was 246 % of control and the T/C (dose: 10.0 mg/kg/injection, schedule: Q01DX Z (ip), vehicle: water) was 209 % of control. The T/C (dose: 14.0 mg/kg/injection, schedule: Q01DX Z (ip), vehicle: carboxymethylcellulose (CMC)) was 160 % of control, the T/C (dose: 25.0 mg/kg/injection, schedule: Q01DX Z (oral), vehicle: water) was 100 % of control and the T/C (dose: 50.0 mg/kg/injection, schedule: Q01DX Z (oral), vehicle: water) was 98 % of control. For the same compound, the T/C (dose: 100.0 mg/kg/injection, schedule: Q01DX Z (oral), vehicle: water) was 104 % of control and the T/C (dose: 200.0 mg/kg/injection, schedule: Q01DX Z (oral), vehicle: water) was 100 % of control.
In the case of `CNC(=O)Oc1ccc(Br)cc1Br`, the T/C [3] is reported as 101 % of control and the T/C (dose: 200.0 mg/kg/injection, schedule: Q01DX009 (ip), vehicle: Klucel (hydroxypropylcellulose) (HPC)) is reported as 100 % of control.
With `O=C(O)c1ccc(C(=O)O)c(O)c1` the T/C [12] was 105 % of control, the T/C [13] was 97 % of control and the T/C [14] was 94 % of control.
With `NNC(=O)C(N)Cc1ccccc1` (stereo unspecified) the T/C [12] was 101 % of control and the T/C [13] was 105 % of control.
For `CCCC(=O)OCc1cnc(SC)nc1N`, the T/C [12] was 100 % of control, the T/C [13] was 97 % of control and the T/C [14] was 93 % of control.
`CCC(C)OC(=O)C(C)OC(=O)OCCOCCOC(=O)OC(C)C(=O)OC(C)CC` (stereo unspecified) was tested, and the T/C [12] was 96 % of control, the T/C [13] was 100 % of control and the T/C [14] was 96 % of control.
With `COc1ccc(C(=O)c2ccccc2C)cc1OC` the T/C [12] was 95 % of control, the T/C [13] was 97 % of control and the T/C [14] was 91 % of control.
`NC(=S)N/N=C/c1ccccc1` was tested, and the T/C [7] was 103 % of control and the T/C [8] was 105 % of control.
With `CCCCCCCCCCC[CH2][Hg][Cl]` the T/C (dose: 6.25 mg/kg/injection, schedule: Q04DX003 (ip), vehicle: Klucel (hydroxypropylcellulose) (HPC)) was 93 % of control.
In the case of `O=C(O)c1c(-c2ccccc2)[nH]c2ccccc2c1=O`, the T/C [4] is reported as 88 % of control, the T/C [5] is reported as 87 % of control and the T/C [6] is reported as 90 % of control.
For `O=C(COc1ccc(Cl)cc1)Nc1cccc2ccccc12`, the T/C (dose: 100.0 mg/kg/injection, schedule: Q04DX002 (ip), vehicle: Klucel (hydroxypropylcellulose) (HPC)) was 87 % of control, the T/C (dose: 200.0 mg/kg/injection, schedule: Q04DX002 (ip), vehicle: Klucel (hydroxypropylcellulose) (HPC)) was 93 % of control and the T/C (dose: 400.0 mg/kg/injection, schedule: Q04DX002 (ip), vehicle: Klucel (hydroxypropylcellulose) (HPC)) was 101 % of control.
`CN(C)CC1CCCCCC(Br)C1=O` (stereo unspecified) was tested, and the T/C [7] was 98 % of control, the T/C [8] was 95 % of control and the T/C [9] was 107 % of control.
